Test results as given in PMC10126419, “pyHeart4Fish: Chamber-specific heart phenotype quantification of zebrafish in high-content screens” (Frontiers in Cell and Developmental Biology, 2023).
Entries after “also recorded” stand apart in the source; their conditions may differ. Where a name gives a salt, the structure may show the parent alone. Read-outs that look alike come from different tables or passages of the source.

Assays:
[1] = test system: Tg(myl7:eGFP)^twu34/+ zebrafish embryos; test: Chamber-specific quantitative heart phenotyping with pyHeart4Fish; conditions: 20 µM; for Effect on heart rate / Effect on heart function / morphology: contractility, conduction, arrhythmia, HS, EF: vs DMSO controls; for Arrhythmia / Conduction defect: number of fish;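 on all read-outs here: embryos exposed 24 h from 24 hpf in 0.2% DMSO egg water, tricaine-anaesthetised, heartbeat videos imaged at 470 nm and hearts analysed chamber by chamber from pixel-intensity beat curves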
Procedure: (§1) Embryos were dechorionated at 21 hpf using 0.22 mg/ml pronase (Merck Chemicals) for 12 min. Then, embryos were carefully washed three times with egg water and transferred into a 96-deep-well plate. After incubation at 28°C for 3 h, excess water was removed with a glass capillary and exchanged with 100 µL/well of 20 µM compound solution from the Prestwick Chemical Library (Prestwick Chemicals, France) in 0.2% DMSO (v/v) in egg water. […] Subsequently, embryos were exposed to compounds for 24 h at 28°C in the dark to enable testing of light-sensitive compounds. Solutions were removed at 48 hpf before wells containing embryos were washed three times with system water. Then, treated embryos were transferred into 12-well plates containing 1 ml 0.03% tricaine in system water (Sigma-Aldrich, Germany). Testing different concentrations (5–80 µM) of compounds and their respective controls followed the above protocol.
(§2) Oriented embryos in 96-well plates were automatically imaged using an [sequence] Imaging Machine ([sequence] Imaging, Germany) widefield microscope. Z-stacks of 10 slices (dZ = 15 µm) were acquired in brightfield (BF) and 470 nm channels with a 4×0.13 numerical aperture objective. The focal plane was detected in the 470 nm channel using a course and secondary fine software autofocus. BF integration time was fixed at 20 ms exposure time and 55% LED intensity. The exposure time for the 470 nm channel was set to 10 ms with a 10% LED intensity. Heartbeat videos of 6 s at 6 frames/second (f/s) were acquired with a time-lapse at a 0 s interval in the focus plane acquired after secondary autofocus using the previously described integration and exposure settings with a 10×0.25 numerical aperture objective.
(§3) Hearts are analyzed chamber-specifically via the user-assisted region of interest (ROI) selection. Cardiac morphology parameters (HS and shape) are extracted as the median of the first six images/frames. Raw data of heartbeat curves for the atrium and ventricle are derived from the sum of pixel intensities and normalized chamber areas. Frequencies (in s^-1) of atrium and ventricle contraction are obtained by applying sine-curve fitting or fast Fourier transformation (FFT) using the SciPy modules “optimize.curve_fit” and “fft.rfft/fft.rfftfreq”, respectively ([Virtanen et al., 2020]). Curve fitting is performed with a maximum of 30 iterations while increasing the frequencies of the fitted sine function. The best fit is selected using the correlation coefficient between the raw data and the fitted function implemented in the NumPy package. A fitted sine function and fitting score are also determined for a truncated signal (first quarter), and the best-fitted sine function is kept to account for an unstable heartbeat signal. In the case of FFT, the first harmonic of the FFT signal is used as the frequency of the atrium or ventricle contraction. Analysis with pyHeart4Fish provides heartbeat videos in GIF format, heartbeat curves as PNG/PDF files and a data sheet containing meta information and cardiac parameters.

zebrafish embryos [2] = test: Toxicity score (ToxScore) at increasing compound concentrations
Procedure: as §1
Embryos that were deceased and not intact were assigned a max. ToxScore value of 5.

zebrafish embryos [3] = test: Manually assessed pericardial edema in treated zebrafish; assay type: in vivo; conditions: for Pericardial edema severity: myl7:eGFP zebrafish
Excerpt: FIGURE 4 Quantitative data analysis with pyHeart4Fish. […] (A) The left graph presents the detected heart rate derived from the fast fourier transformation (FFT). […] (B) Percentual data on the severity of manually assessed pericardial edema in treated Tg(myl7:eGPF)^twu34/+ zebrafish. (C) The relative contractility derived from percentual size changes of each heart chamber (left graph). Approximate ejection fraction determined by chamber volume changes (right graph). […] The number of fish analyzed is shown in brackets after the treatment condition. Dotted gray lines indicate z-scores of ±1.96 and statistical significance with an alpha error of 5%.

zebrafish embryos [4] = test: Gross morphology / development of treated zebrafish 2 dpf (brightfield); assay type: in vivo; conditions: 20 µM; for Gross morphology / developmental and teratogenic effects: 2 dpf
Procedure: FIGURE 5 Morphology of treated zebrafish 2 dpf. An overview of the gross phenotypes of treated zebrafish 2 days post-fertilization. All compounds were dissolved in DMSO; therefore, DMSO served as the negative control. NaCl served as the salt control. The effects of atorvastatin treatment on zebrafish embryos were previously established; thus, this drug was used as a positive control for cardioactivity. The aquatic toxic compound enilconazole was used as the toxic positive control. […] The black arrow in the image of iopanoic acid-treated zebrafish embryo indicates caudal fin deformity. The scale bar indicates 500 µm in overview brightfield images and 150 µm in fluorescence images. (a) Atrium; (v) ventricle.

[5] = set-up: method as in Prestwick Chemical Library; conditions: solvents; library annotation, ref Prestwick Chemical Library; cited from earlier work
[6] = test system: Tg(fli1a:nEGFP)^y7 zebrafish embryos; test: Primary high-content heart rate screen of the Prestwick Chemical Library (HeartBeat software v.2.1); assay type: in vivo; conditions: 20 µM
Excerpt: Acquired image series were preprocessed and analyzed using the previously published HeartBeat software v.2.1 and provided scripts ([Gierten et al., 2020]). For increased comparability between experiments, each quantitative HR value (beats per minute) was divided by the mean of the DMSO controls from the respective experiment. This procedure minimizes variation and creates specific fold-change values that are z-score normalized in the next step. A 90% CI was used to reduce the probability of false-negative results. Finally, data from compounds with insufficient N and known aquatic toxicity were removed.
Based on a previously established high-throughput screening pipeline, we performed a high-content drug screen in zebrafish for cardiovascular modulators ([Poureetezadi et al., 2014]; [Gierten et al., 2020]; [Westhoff et al., 2020]). […] About 98% of the library’s compounds are approved by the Food and Drug Administration (FDA), European Medicines Agency (EMA) or other regulatory agencies. The drug library was screened at a concentration of 20 µM for 24 h until 48 hpf using the transgenic zebrafish line Tg(fli1a:nEGFP)^y7. Subsequently, BF images and videos were captured at 2 dpf to assess gross morphology. HR was analyzed with the previously published tool HeartBeat (v.2.1) to identify potential hit compounds. A 90% CI threshold for effect sizes of ±1.64 was used to reduce false-negative results. […] The Open Targets platform and the Mayo Clinic Drugs and Supplements Database were systematically searched for compound names and common synonyms ([Drugs and Supplements, 2022]; [Open Targets, 2022]). The Medical Subject Headings (MeSH) terms “compound name” and “heart rate” were applied to NCBI PubMed literature research before the first five pages of publications sorted by relevance were screened for relevant information. Furthermore, compounds were filtered for unknown targets (n = 3), FDA black box warning (n = 6) and aquatic toxicity (n = 4). […] Therefore, compounds with n < 3 were excluded (n = 7).

[7] = test system: Tg(myl7:eGFP)^twu34/+ zebrafish embryos; conditions: in vivo;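 further: embryos exposed 24 h from 24 hpf in 0.2% DMSO egg water, tricaine-anaesthetised, heartbeat videos imaged at 470 nm and hearts analysed chamber by chamber from pixel-intensity beat curves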
Procedure: as §1, §2, §3

[8] = number of fish, 20 µM, Tg(myl7:eGFP)
[9] = Tg(fli1a:nEGFP)^y7, zebrafish, in vivo, 24 h
[10] = 24 h until 48 hpf, Tg(fli1a:nEGFP)y7

| SMILES | Arrhythmia [1] | Conduction defect [1] | Edema: Mild (zebrafish embryos [3]; [8]) | Edema: Moderate (zebrafish embryos [3]; [8]) | Edema: No edema (zebrafish embryos [3]; [8]) | Edema: Severe (zebrafish embryos [3]; [8]) | Gross morphology / developmental and teratogenic effects (zebrafish embryos [4]) | Lit. Solubility [5] | Z-score Heart rate [6, 9] [z-score] | also measured |
| --- | --- | --- | --- | --- | --- | --- | --- | --- | --- | --- |
| C=CCOC(Cn1ccnc1)c1ccc(Cl)cc1Cl (stereo not shown) [Enilconazole, enilconazole] | 1 | 0 | 2 | 0 | 3 | 0 | inhibited pigmentation | – | – | Effect on heart rate [1]: significantly reduced HR; Concentration-dependent toxic effects (zebrafish embryos [2]; 5–80 µM): dose-dependent; Treated fish with developmental delays (zebrafish embryos [4]; both zebrafish lines): 100% |
| CC(C)(C)c1ccc(C(O)CCCN2CCC(C(O)(c3ccccc3)c3ccccc3)CC2)cc1 (stereo not shown) [Terfenadine] | – | – | – | – | – | – | – | EtOH/H2O:50/50 | -5.761 | – |
| CN1CCC[C@@H]1CCO[C@](C)(c1ccccc1)c1ccc(Cl)cc1 [Clemastine fumarate] | – | – | – | – | – | – | – | MeOH | -2.7618 | – |
| CN1CCCN(C(c2ccccc2)c2ccc(Cl)cc2)CC1.Cl.Cl (stereo not shown) [Homochlorcyclizine dihydrochloride] | – | – | – | – | – | – | – | – | – | Z-score Heart rate [6, 10]: -1.853 z-score |
| CC(C)c1c(C(=O)Nc2ccccc2)c(-c2ccccc2)c(-c2ccc(F)cc2)n1CC[C@@H](O)C[C@@H](O)CC(=O)O [Atorvastatin, atorvastatin] | 11 | 0 | 5 | 1 | 5 | 0 | – | – | – | Effect on heart function / morphology: contractility, conduction, arrhythmia, HS, EF [1]: did not cause electrophysiological conduction defects; Effect on heart rate [1]: significantly decreased HR |
| N=C(N)c1ccc(OCCCCCOc2ccc(C(=N)N)cc2)cc1 [Pentamidine isethionate] | 1 | 0 | 4 | 0 | 4 | 0 | did not reveal teratogenic effects | – | – | – |
| CN1CCN(C(c2ccccc2)c2ccc(Cl)cc2)CC1 (stereo not shown) [Chlorcyclizine hydrochloride] | – | – | – | – | – | – | – | H2O, CHCl3 | – | Z-score Heart rate [6, 10]: -2.061 z-score |
| CN(C)CCCOc1nn(Cc2ccccc2)c2ccccc12 [Benzydamine HCl] | 1 | 0 | 2 | 0 | 2 | 0 | – | – | – | Effect on heart function / morphology: contractility, conduction, arrhythmia, HS, EF [1]: do not induce arrhythmia; Effect on heart function / morphology: contractility, conduction, arrhythmia, HS, EF ([1]; listed as BZY): no conduction defects or arrhythmias were detected; also recorded: relative ventricle contractility increased significantly; Treated embryos with pericardial edema (zebrafish embryos [3]; 20 µM): 50% |
| Cc1ccc(/C(=C\CN2CCCC2)c2ccccn2)cc1.Cl [Triprolidine hydrochloride] | – | – | – | – | – | – | – | H2O, MeOH, EtOH | – | – |
| Cc1cc(/C=C/c2ccc3cc(N(C)C)ccc3[n+]2C)c(C)n1-c1ccccc1 [Pyrvinium pamoate] | 1 | 0 | 1 | 0 | 4 | 0 | no teratogenic effects | – | – | Effect on heart function / morphology: contractility, conduction, arrhythmia, HS, EF [1]: did not affect relative contractility, conduction, and HS |
| Oc1ccc(OCc2ccccc2)cc1 [Monobenzone] | 3 | 0 | 3 | 2 | 3 | 2 | caused depigmentation without delaying development | – | – | Effect on heart function / morphology: contractility, conduction, arrhythmia, HS, EF [1]: did not cause any other alterations to heart phenotypes; ToxScore (zebrafish embryos [2]; 80 µM): ≤ 2.5 |
| CN1CCC(OC(c2ccccc2)c2ccccc2)CC1 [Diphenylpyraline hydrochloride] | – | – | – | – | – | – | – | H2O, EtOH | -3.549 | – |
| [Cl-].[Na+] [NaCl, sodium chloride] | – | – | – | – | – | – | – | – | – | Arrhythmia [7]: 1; Chamber size Atrium Max. Contraction [7]: -0.090 z-score; Chamber size Atrium Max. Dilation [7]: -0.215 z-score; Chamber size Ventricle Max. Contraction [7]: -0.643 z-score; Chamber size Ventricle Max. Dilation [7]: 0.353 z-score; Conduction defect [7]: 0; Effect on heart function / morphology: contractility, conduction, arrhythmia, HS, EF [7]: did not significantly affect heart morphology or functionality; Ejection Fraction Atrium [7]: -0.097 z-score; Ejection Fraction Ventricle [7]: 1.036 z-score; FFT freq Atrium (heart rate) [7]: -0.679 z-score; FFT freq Ventricle (heart rate) [7]: -0.573 z-score; Heart size [7]: 0.745 z-score; Relative contractility Atrium [7]: -0.00158 z-score; Relative contractility Ventricle [7]: 0.272 z-score; Edema: Mild (zebrafish embryos [3]; zebrafish, in vivo): 7; Edema: Moderate (zebrafish embryos [3]; zebrafish, in vivo): 0; Edema: No edema (zebrafish embryos [3]; zebrafish, in vivo): 8; Edema: Severe (zebrafish embryos [3]; zebrafish, in vivo): 0 |
| CC(=O)[C@H]1CC[C@H]2[C@@H]3CC=C4C[C@@H](O)CC[C@]4(C)[C@H]3CC[C@]12C [Pregnenolone] | 1 | 1 | 1 | 3 | 0 | 1 | teratogenic effects | – | – | Effect on heart function / morphology: contractility, conduction, arrhythmia, HS, EF ([1]; listed as P5): relative contractility of both heart chambers was affected by impaired contraction; also recorded: HS and morphology were not affected; Pericardial edema severity (zebrafish embryos [3]; 20 µM): moderate to severe pericardial and yolk edema |
| CN(C)CCOC(c1ccc(Cl)cc1)c1ccccn1.O=C(O)/C=C\C(=O)O (stereo not shown) [Carbinoxamine maleate salt] | – | – | – | – | – | – | – | H2O, EtOH, CHCl3 | – | – |
| CN1CCCC(n2nc(Cc3ccc(Cl)cc3)c3ccccc3c2=O)CC1 (stereo not shown) [Azelastine hydrochloride] | – | – | – | – | – | – | – | H2O, EtOH, DMSO | -2.598 | – |
| OCCN1CCN(CCCN2c3ccccc3C=Cc3ccccc32)CC1 [Opipramol diHCl] | 1 | 0 | 5 | 0 | 0 | 0 | mild developmental delay | – | – | Effect on heart function / morphology: contractility, conduction, arrhythmia, HS, EF [1]: do not induce arrhythmia; Effect on heart rate [1]: did not affect HR; Effect on heart function / morphology: contractility, conduction, arrhythmia, HS, EF ([1]; listed as OPI): significantly reduced relative ventricular contractility; Pericardial edema severity (zebrafish embryos [3]; 20 µM): mild edema |
| CN(C)CCC(c1ccc(Br)cc1)c1ccccn1 (stereo not shown) [Brompheniramine maleate] | – | – | – | – | – | – | – | – | -2.122 | – |
| CN(C)CCN(Cc1ccccc1)c1ccccn1 [Tripelennamine HCl, tripelennamine HCl] | 0 | 0 | 4 | 5 | 2 | 0 | development was not delayed | DMSO | -2.358 | Effect on heart rate [1]: decreased HR; ToxScore, highest over tested concentrations (zebrafish embryos [2]; 5–80 µM): ≤ 2.6 |
| CCOC(=O)N1CCC(=C2c3ccc(Cl)cc3CCc3cccnc32)CC1 [Loratadine] | – | – | – | – | – | – | – | – | – | Z-score Heart rate [6, 10]: -1.771 z-score |
